Source: article PMC2607020, “An Unusual Helix Turn Helix Motif in the Catalytic Core of HIV-1 Integrase Binds Viral DNA and LEDGF” (PLoS ONE, 2009)
“Also recorded” adds a separate entry of the source. Read-outs that look alike come from different tables or passages of the source.

Experiments:
LEDGF-IBD (wt IBD) = molecular target: T1, LEDGF-IBD (wt IBD) (Homo sapiens, UniProt O75475); assay: Fluorescence anisotropy titration of fluorescein-grafted HTHi by wt LEDGF-IBD; type: binding; conditions: fluorescein-grafted HTHi 50 nM titrated by wt LEDGF-IBD; pH 6.0; 5°C
T1 construct: The wt IBD is the fragment 347–471 of LEDGF (GST removed); GST (cleaved yes)
T1 sequence (O75475 347-471): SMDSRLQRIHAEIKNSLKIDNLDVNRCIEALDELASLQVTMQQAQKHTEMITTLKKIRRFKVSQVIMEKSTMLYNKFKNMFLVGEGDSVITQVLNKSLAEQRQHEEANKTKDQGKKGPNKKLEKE
Description: (§1) Like the whole protein, these contain no Trp.

[1] = test system: Asp366Asn-IBD variant of LEDGF; conditions: fluorescence anisotropy; fluorescein-labeled HTHi 50 nM; pH 6.0; 5°C
Procedure: The wt IBD is the fragment 347–471 of LEDGF (GST removed) [33], [51], [52]. The mutant IBD is the Asp366Asn version of the former. Like the whole protein, these contain no Trp. […] The proteins were used in the “reaction buffer” containing 20 mM HEPES (pH 6.8), 10 mM MgCl2 and 10 mM DTT.
Intrinsic fluorescence quantum yield and fluorescence anisotropy studies were carried out with a Jobin-Yvon Fluoromax II instrument (HORIBA Jobin-Yvon, France) equipped with an ozone-free 150 W xenon lamp. The samples (800 µl) were placed at 5°C in thermally jacketed 1 cm×0.5 cm quartz cells. At least ten measurements for each titration point were recorded with an integration time of 5 sec.
The fluorescence anisotropy of the fluorescein-conjugated version of HTHi (50 nM) titrated by wt and mutated IBD in the “assay buffer” was used to evaluate the Kd of the LEDGF-HTHi complex.

wt IN [2] = conditions: intrinsic fluorescence of IN; similar conditions; ref [30]; cited from earlier work
Procedure: In a previous study, based on the intrinsic fluorescence properties of IN conferred by its six Trp residues, we have shown the ability of peptide INH5 (Table 1a) to interact with IN with a concentration midpoint (C0.5) of 168 nM [30].

IN = conditions: ref [30]; cited from earlier work
Procedure: In a previous study, based on the intrinsic fluorescence properties of IN conferred by its six Trp residues, we have shown the ability of peptide INH5 (Table 1a) to interact with IN with a concentration midpoint (C0.5) of 168 nM [30]. […] There are examples in the literature showing that the so-called stabilizing helix of HTH motifs is involved in the protein dimerization. This is the case of topoisomerase II, in which the binding site to DNA is fashioned from the interaction of two HTH motifs. The implication of the α5 helix in the enzyme structure and activity has been highlighted in our previous report showing that peptide INH ...

viral DNA = assay: Specific binding of peptide to viral DNA (general statement); design: species or system HIV-1; conditions: Discussion
LTR34f5′ [3] = conditions: LTR34f5′ vs LTR34fm; ref [43]; cited from earlier work
Description: (§2) In a previous work we pointed out the importance of the conformational entropy in the binding of the α4 helix to the viral DNA. In order to reduce this effect, we had designed an analog of the α4 peptide that had its secondary structure stabilized by helicogenic mutations (Gly149Ala, Ile161Leu, Ile162Leu and Gly163Ala). The resulting peptide, K156, was a good mimic of the α4 helix in the protein context and was better organized for binding than peptide α4.

LTR34fm [4] = conditions: ref [43], cited from earlier work
Description: as §2

[5] = molecular target: CRE (cAMP response element); conditions: negative control sequence CRE; ref [43]; read-out: Kd (non-specific binding); cited from earlier work
Description: The behavior of peptide HTHi is similar to that of peptide K156.

[6] = Circular dichroism of free peptide (secondary structure, oligomerisation); type: physicochemical
Description: They were made according to the Fmoc procedure, as already reported for peptide α4, for its “stabilized” analogue i.e., peptide K156, and for the peptide INH5, derived from the α5 helix, [43]. Peptide α4 reproduces the α4 helix sequence of IN; peptide K156 is a variant of the α4 peptide resulting from the replacement of weakly helicogenic residues by more helicogenic ones in several biologically irrelevant positions; peptide INH5 contains both the α5 helix and the turn connecting the α5 helix to the α4 helix. The peptides HTHi and wt HTHi reproduce the sequences of the HTHi motifs in the IN-Phe185Lys variant and in wt IN respectively. A version of the HTHi peptide with a carboxyfluorescein at the N-terminus has also been prepared. Tyr or Trp aromatic residues, when absent in the native sequences, were purposely added in order to enable peptide quantification by UV absorption spectra. Peptide concentrations were determined using a molar absorption coefficient at 280 nm equal to 1 280 M^−1 cm^−1 for the tyrosine-containing peptides α4, INH5 and HTHi and 5600 M^−1 cm^−1 for the tryptophane-containing peptides K156 and […].
CD spectra were recorded on a Jobin-Yvon CD6 dichrograph (HORIBA Jobin-Yvon, France). Peptide concentrations varied from 5 to 25 µM in the “assay buffer”, containing 40 mM sodium phosphate, 0.5 mM EDTA, pH 6.0. The samples, incubated 10 min at the chosen temperature to allow the solutions to reach their equilibrium state, were placed in thermally jacketed cells with a 1 mm path length. The spectra, recorded in 1 nm steps, were averaged over ten scans and corrected for the base line, then presented as differential molar absorptivities per residue, Δε (M^−1 cm^−1), for peptides, and as difference spectra (complex minus DNA), for peptide-DNA complexes. For the HTHi-LTR interaction, aliquots of peptide were added to LTR34 (10 µM) and the control spectrum of unliganded LTR was subtracted from that of the complex. Recall that in a simple random coil – α helix equilibrium, the α-helix content of peptides could be approximated by the relation: Pα = −[Δε222×10] (Pα: percentage of α helix; Δε222: differential molar absorptivity per residue at 222 nm).

wt IN [7] = assay: Quenching of the intrinsic fluorescence of wt IN by peptide; type: binding, HIV-1; conditions: wt IN 100 nM monomer; Trp fluorescence quenching, excitation 295 nm; 20 mM HEPES pH 6.8, 10 mM MgCl2, 10 mM DTT; 5°C
Procedure: as §1
The intrinsic fluorescence of wt IN was measured at 100 nM monomer concentration, in the “reaction buffer” (see above). The Trp residues were excited at 295 nm and emission was recorded between 305 and 450 nm, with 2 nm and 5 nm excitation and emission slit widths, respectively. A maximal emission was obtained at 337 nm. Quenching of the fluorescence of IN following the addition of HTHi or of peptide α4 (devoid of Trp) was expressed as 1-F/F0, where F0 is the fluorescence of the enzyme in the absence of peptide.

LTR34fm [8] = assay: Fluorescence anisotropy titration of LTR34fm by peptide; type: binding, HIV-1; conditions: LTR34fm 20 nM, curve fitting, ±10% uncertainty, 40 mM sodium phosphate, 0.5 mM EDTA, pH 6.0, 5°C
Description: (§3) The oligonucleotides (Table 1b) were purchased from Cybergene ESGS (France) and Eurogentec (Belgium). The choice of monomolecular hairpin-forming oligonucleotides, rather than bimolecular duplex-forming ones, was motivated by the need for stability under the low concentrations inherent to the fluorescence anisotropy experiments. The fluorescein reporter group is grafted either to the central T nucleotide (LTR34fm) or to the 5′ extremity (LTR34f5′ and CRE). The CRE (cAMP responsive element) sequence was used as negative control. The version of LTR34 without fluorescein was used in CD studies.
(§4) Fluorescence anisotropy titration, [75]. Fluorescein-labeled oligonucleotides were used at 20 nM in the “assay buffer” (see Table 1b and above). With fluorescein as fluorophore, excitation and emission were at 488 nm and 516 nm, with 4 nm and 5 nm slits, respectively. Peptides were added to DNA as successive aliquots. For each anisotropy measurement, the parallel [drawing 1] and the perpendicular [drawing 2] intensities of the background solution (i.e., buffer and protein contributions) were subtracted from those of the sample.

LTR34f5′ [9] = assay: Fluorescence anisotropy titration of LTR34f5′ by peptide; type: binding, HIV-1
Description: as §3, §4

[10] = molecular target: CRE (cAMP response element); assay: Fluorescence anisotropy titration of CRE (negative control sequence) by peptide; conditions: CRE 20 nM, curve fitting, ±10% uncertainty, 40 mM sodium phosphate, 0.5 mM EDTA, pH 6.0, 5°C, read-out: Kd (non-specific binding)
Description: as §3, §4

LTR34 = assay: Circular dichroism of peptide-DNA complex (difference spectrum); type: binding, HIV-1; conditions: HTHi 6 µM + LTR34 10 µM, 40 mM sodium phosphate, 0.5 mM EDTA, pH 6.0
Description: as §3
CD spectra were recorded on a Jobin-Yvon CD6 dichrograph (HORIBA Jobin-Yvon, France). Peptide concentrations varied from 5 to 25 µM in the “assay buffer”, containing 40 mM sodium phosphate, 0.5 mM EDTA, pH 6.0. The samples, incubated 10 min at the chosen temperature to allow the solutions to reach their equilibrium state, were placed in thermally jacketed cells with a 1 mm path length. The spectra, recorded in 1 nm steps, were averaged over ten scans and corrected for the base line, then presented as differential molar absorptivities per residue, Δε (M^−1 cm^−1), for peptides, and as difference spectra (complex minus DNA), for peptide-DNA complexes. […]

CC[C@H](C)[C@H](NC(=O)[C@H](Cc1ccccc1)NC(=O)[C@@H](NC(=O)[C@H](C)NC(=O)[C@H](CCSC)NC(=O)[C@H](CCC(N)=O)NC(=O)[C@@H](NC(=O)[C@H](C)NC(=O)[C@@H](NC(=O)[C@H](CCCCN)NC(=O)[C@H](CC(C)C)NC(=O)[C@H](Cc1c[nH]cn1)NC(=O)[C@H](CCC(=O)O)NC(=O)[C@H](C)NC(=O)[C@H](CCC(N)=O)NC(=O)[C@H](CC(=O)O)NC(=O)[C@H](CCCNC(=N)N)NC(=O)[C@@H](NC(=O)[C@H](CCC(N)=O)NC(=O)CNC(=O)[C@@H](NC(=O)[C@@H](NC(=O)[C@H](CCCCN)NC(=O)[C@H](CCCCN)NC(=O)[C@H](CC(C)C)NC(=O)[C@H](CCC(=O)O)NC(=O)[C@H](CCCCN)NC(=O)[C@H](CC(N)=O)NC(=O)[C@H](CCSC)NC(=O)[C@H](CO)NC(=O)[C@H](CCC(=O)O)NC(=O)[C@@H](NC(=O)[C@@H](NC(=O)CNC(=O)[C@H](Cc1ccc(O)cc1)NC(=O)c1ccc2c(c1)C(=O)OC21c2ccc(O)cc2Oc2cc(O)ccc21)C(C)C)[C@@H](C)CC)[C@@H](C)CC)[C@@H](C)CC)C(C)C)[C@@H](C)O)C(C)C)C(C)C)C(=O)N[C@@H](Cc1c[nH]cn1)C(=O)N[C@@H](CC(N)=O)C(=O)N[C@@H](CCCCN)C(=O)N[C@@H](CCCCN)C(=O)N[C@@H](C)C(=O)O [fluorescein-grafted HTHi peptide]
Hill number (LEDGF-IBD (wt IBD)): 11±3 | binding to Asp366Asn-IBD vs wt IBD [1]: only the wt IBD binds HTHi

DQ 168 AEHLKTAVQMAVFIHNY 185KA [INH5, peptide containing both the α5 helix and the turn connecting the α5 helix to the α4 helix]
concentration midpoint (C0.5) (wt IN [2]): 168 nM | effect on IN (IN): caused the dissociation of the tetramers and dimers of IN; also recorded: inhibits IN by dissociating the IN dimers and tetramers

SQA 149 KLEEMNK156ELKKLLAQVRAQ168 W
affinity for viral DNA compared with HTHi (viral DNA; K156 vs HTHi): manifests a greater affinity for viral DNA than peptide HTHi | effect of fluorescein at the 5′ extremity on binding modes (LTR34f5′ [3]): suppressed the high affinity binding mode of K156 but preserved the low affinity mode | Kd (LTR34fm [4]; attachment site on the six outermost bases of viral DNA, read-out: Kd1 (high affinity site)): 0.0021 µM | Kd (LTR34fm [4]; non-specific binding, read-out: Kd2 (low affinity site)): 54 µM | Kd [5]: 16 µM

SQG149VIESMNK156ELKKIIGQVRDQ 168 AEHLKTAVQMAVWIHNF185K [wt HTHi]
structure compared with that of the mutant bi-helix ([6]; experiments not shown, method not stated): the structure of the wt bi-helix was similar to that of the mutant

SQG149VVESMNK156ELKKIIGQVRY [α4]
midpoint of titration curve (C0.5) (wt IN [7]): 53 ± 5 nM | conformation of isolated peptide ([6]; stated in Discussion): mostly displays random conformation | DNA binding (in words) (viral DNA; isolated peptide, no value): very poor DNA binder; also recorded: completely unable to specifically bind the viral DNA

YG149VIESMNK156ELKKIIGQVRDQ 168 AEHLKTAVQMAVFIHNK 185KA [HTHi]
Kd (LTR34fm [8]; read-out: Kd1 (high affinity site)): 0.05 µM | Kd (LTR34fm [8]; read-out: Kd2 (low affinity, non-specific site)): 1.9 µM | Kd (LTR34f5′ [9]; LTR34f5′ 20 nM, monophasic, fluorescence anisotropy, curve fitting, ±10% uncertainty, 40 mM sodium phosphate, 0.5 mM EDTA, pH 6.0, 5°C): 2.9 µM | effect of fluorescein at the 5′ extremity on high affinity binding (LTR34f5′ [9]; LTR34f5′ vs LTR34fm): The high affinity is abolished | Kd [10]: 6.6 µM | midpoint of titration curve (C0.5) (wt IN [7]): 104 ± 8 nM | helix content compared with component peptides α4 and INH5 ([6]; CD, spectra of α4 from ref [43] and of INH5 from ref [30]): helix content of HTHi is greater than that of peptides α4 [43] and INH5 [30] | propensity to form oligomers in solution ([6]; high peptide concentration, CD, pH 6.0): propensity of HTHi to form oligomers in solution at high concentration | helical content ([6]; peptide 6 µM, 40 mM sodium phosphate, 0.5 mM EDTA, pH 6.0, 1 mm path length): 10–15% | helical content (in words) ([6]; peptide 25 µM, 40 mM sodium phosphate, 0.5 mM EDTA, pH 6.0): weak amount of helix | change of helical content on binding LTR34 (LTR34): practically doubles its helical content when binding to LTR34
